{"source": "PubChem BioAssay AID270", "about": "(DTP/NCI, 2004)", "system": "BDF1 mice, s.c. Lewis lung carcinoma, T/C %", "assay": "NCI In Vivo Anticancer Drug Screen. Data for tumor model Lewis Lung Carcinoma (subcutaneous) in B6D2F1 (BDF1) mice", "how_it_was_run": "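The value reflects a ratio in which the treated cohort's survival time or tumour size is compared against mice receiving only vehicle.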", "key": {"[1]": {"settings": "endpoint: mean tumor weight, dose: 50.0 mg/kg/injection, schedule: Q01DX011 (ip), vehicle: saline, higher = larger tumour"}, "[2]": {"settings": "endpoint: mean tumor weight, dose: 100.0 mg/kg/injection, schedule: Q01DX011 (ip), vehicle: saline, higher = larger tumour"}, "[3]": {"settings": "endpoint: mean tumor weight, dose: 200.0 mg/kg/injection, schedule: Q01DX011 (ip), vehicle: saline, higher = larger tumour"}}, "note": "Values joined by “and” are separate entries in the source; they are usually repeats but may differ in a detail not shown here. Equal entries are not always repeated. Results filed as inconclusive are left out."}
{"smiles": "CN(N=O)C(=O)N[C@@H](C=O)[C@@H](O)[C@H](O)[C@H](O)CO", "values": [{"measurement": "T/C", "setting": "endpoint: mean tumor weight (est.), dose: 20.0 mg/kg/injection, schedule: Q01DX009 (ip), vehicle: water, higher = larger tumour", "value": "93 % of control"}, {"measurement": "T/C", "setting": "endpoint: mean tumor weight (est.), dose: 40.0 mg/kg/injection, schedule: Q01DX009 (ip), vehicle: water, higher = larger tumour", "value": "65 % of control"}, {"measurement": "T/C", "setting": "endpoint: mean tumor weight (est.), dose: 80.0 mg/kg/injection, schedule: Q01DX009 (ip), vehicle: water, higher = larger tumour", "value": "42 % of control"}, {"measurement": "T/C", "setting": "endpoint: median survival time, dose: 20.0 mg/kg/injection, schedule: Q01DX009 (ip), vehicle: water, higher = longer survival", "value": "115 % of control"}, {"measurement": "T/C", "setting": "endpoint: median survival time, dose: 40.0 mg/kg/injection, schedule: Q01DX001 (ip), vehicle: other, higher = longer survival", "value": "99 % of control and 105 % of control"}, {"measurement": "T/C", "setting": "endpoint: median survival time, dose: 40.0 mg/kg/injection, schedule: Q01DX001 (ip), vehicle: saline, higher = longer survival", "value": "86 % of control"}, {"measurement": "T/C", "setting": "endpoint: median survival time, dose: 40.0 mg/kg/injection, schedule: Q01DX009 (ip), vehicle: water, higher = longer survival", "value": "94 % of control"}, {"measurement": "T/C", "setting": "endpoint: median survival time, dose: 80.0 mg/kg/injection, schedule: Q01DX001 (ip), vehicle: other, higher = longer survival", "value": "90 % of control and 108 % of control"}, {"measurement": "T/C", "setting": "endpoint: median survival time, dose: 80.0 mg/kg/injection, schedule: Q01DX001 (ip), vehicle: saline, higher = longer survival", "value": "94 % of control"}, {"measurement": "T/C", "setting": "endpoint: median survival time, dose: 160.0 mg/kg/injection, schedule: Q01DX001 (ip), vehicle: other, higher = longer survival", "value": "98 % of control and 111 % of control"}, {"measurement": "T/C", "setting": "endpoint: median survival time, dose: 160.0 mg/kg/injection, schedule: Q01DX001 (ip), vehicle: saline, higher = longer survival", "value": "108 % of control"}, {"measurement": "T/C", "setting": "endpoint: median survival time, dose: 320.0 mg/kg/injection, schedule: Q01DX001 (ip), vehicle: other, higher = longer survival", "value": "99 % of control"}, {"measurement": "T/C", "setting": "endpoint: median survival time, dose: 320.0 mg/kg/injection, schedule: Q01DX001 (ip), vehicle: saline, higher = longer survival", "value": "91 % of control"}]}
{"smiles": "CC(C)C1C=C2CCC3C(C)(C(=O)O)CCCC3(C)C2CC1", "note": "(configuration not stated)", "values": [{"measurement": "T/C", "setting": "endpoint: mean tumor weight, dose: 100.0 mg/kg/injection, schedule: Q01DX011 (ip), vehicle: carboxymethylcellulose (CMC), higher = larger tumour", "value": "89 % of control"}, {"measurement": "T/C", "setting": "endpoint: mean tumor weight, dose: 200.0 mg/kg/injection, schedule: Q01DX011 (ip), vehicle: carboxymethylcellulose (CMC), higher = larger tumour", "value": "38 % of control"}]}
{"smiles": "COC1C(O)CC(OC2CC(OC3CC(O[C@@H]4C(=O)c5c(cc6cc(OC7CC(OC8CC(O)C(O)C(C)O8)C(O)C(C)O7)c(C)c(O)c6c5O)C[C@H]4[C@H](OC)C(=O)[C@@H](O)[C@@H](C)O)OC(C)C3O)OC(C)C2O)OC1C", "note": "(some centres not stated)", "values": [{"measurement": "T/C", "setting": "endpoint: median survival time, dose: 37.5 micrograms/kg/injection, schedule: Q01DX009 (ip), vehicle: water, higher = longer survival", "value": "110 % of control"}, {"measurement": "T/C", "setting": "endpoint: median survival time, dose: 75.0 micrograms/kg/injection, schedule: Q01DX009 (ip), vehicle: water, higher = longer survival", "value": "118 % of control"}, {"measurement": "T/C", "setting": "endpoint: median survival time, dose: 150.0 micrograms/kg/injection, schedule: Q01DX009 (ip), vehicle: water, higher = longer survival", "value": "86 % of control"}]}
{"smiles": "c1cc[c]([Sn]([S][Sn]([c]2ccccc2)([c]2ccccc2)[c]2ccccc2)([c]2ccccc2)[c]2ccccc2)cc1", "values": [{"measurement": "T/C", "setting": "endpoint: median survival time, dose: 50.0 mg/kg/injection, schedule: Q01DX009 (ip), vehicle: saline with Tween-80, higher = longer survival", "value": "91 % of control"}, {"measurement": "T/C", "setting": "endpoint: median survival time, dose: 100.0 mg/kg/injection, schedule: Q01DX009 (ip), vehicle: saline with Tween-80, higher = longer survival", "value": "93 % of control"}, {"measurement": "T/C", "setting": "endpoint: median survival time, dose: 200.0 mg/kg/injection, schedule: Q01DX009 (ip), vehicle: saline with Tween-80, higher = longer survival", "value": "102 % of control"}]}
{"smiles": "Cn1cnc2c1c(=O)[nH]c(=O)n2C", "values": [{"measurement": "T/C", "setting": "[1]", "value": "74 % of control"}, {"measurement": "T/C", "setting": "[2]", "value": "72 % of control"}, {"measurement": "T/C", "setting": "[3]", "value": "85 % of control"}, {"measurement": "T/C", "setting": "endpoint: mean tumor weight, dose: 400.0 mg/kg/injection, schedule: Q01DX011 (ip), vehicle: saline, higher = larger tumour", "value": "84 % of control"}]}
{"smiles": "CCC(C)n1ncc2c(N(C)C)ncnc21", "note": "(configuration not stated)", "values": [{"measurement": "T/C", "setting": "endpoint: mean tumor weight, dose: 32.5 mg/kg/injection, schedule: Q01DX011 (ip), vehicle: carboxymethylcellulose (CMC), higher = larger tumour", "value": "76 % of control"}]}
{"smiles": "NC(=O)NO", "values": [{"measurement": "T/C", "setting": "endpoint: mean tumor weight (est.), dose: 100.0 mg/kg/injection, schedule: Q01DX009 (ip), vehicle: water, higher = larger tumour", "value": "66 % of control"}, {"measurement": "T/C", "setting": "endpoint: mean tumor weight (est.), dose: 200.0 mg/kg/injection, schedule: Q01DX009 (ip), vehicle: water, higher = larger tumour", "value": "28 % of control"}, {"measurement": "T/C", "setting": "endpoint: mean tumor weight (est.), dose: 400.0 mg/kg/injection, schedule: Q01DX009 (ip), vehicle: water, higher = larger tumour", "value": "33 % of control"}, {"measurement": "T/C", "setting": "endpoint: mean tumor weight, dose: 25.0 mg/kg/injection, schedule: Q01DX011 (ip), vehicle: saline, higher = larger tumour", "value": "58 % of control"}, {"measurement": "T/C", "setting": "[1]", "value": "90 % of control"}, {"measurement": "T/C", "setting": "[2]", "value": "89 % of control"}, {"measurement": "T/C", "setting": "[3]", "value": "31 % of control"}, {"measurement": "T/C", "setting": "endpoint: median survival time, dose: 2.5 mg/kg/injection, schedule: Q08HX024 (ip), vehicle: saline, higher = longer survival", "value": "92 % of control"}, {"measurement": "T/C", "setting": "endpoint: median survival time, dose: 10.0 mg/kg/injection, schedule: Q08HX024 (ip), vehicle: Klucel (hydroxypropylcellulose) (HPC), higher = longer survival", "value": "181 % of control"}, {"measurement": "T/C", "setting": "endpoint: median survival time, dose: 20.0 mg/kg/injection, schedule: Q08HX024 (ip), vehicle: Klucel (hydroxypropylcellulose) (HPC), higher = longer survival", "value": "181 % of control"}, {"measurement": "T/C", "setting": "endpoint: median survival time, dose: 40.0 mg/kg/injection, schedule: Q08HX024 (ip), vehicle: Klucel (hydroxypropylcellulose) (HPC), higher = longer survival", "value": "95 % of control"}, {"measurement": "T/C", "setting": "endpoint: median survival time, dose: 40.0 mg/kg/injection, schedule: Q08HX024 (ip), vehicle: saline, higher = longer survival", "value": "90 % of control"}, {"measurement": "T/C", "setting": "endpoint: median survival time, dose: 97.0 mg/kg/injection, schedule: Q01DX009 (ip), vehicle: saline, higher = longer survival", "value": "119 % of control"}, {"measurement": "T/C", "setting": "endpoint: median survival time, dose: 100.0 mg/kg/injection, schedule: Q01DX009 (ip), vehicle: water, higher = longer survival", "value": "94 % of control"}, {"measurement": "T/C", "setting": "endpoint: median survival time, dose: 200.0 mg/kg/injection, schedule: Q01DX009 (ip), vehicle: water, higher = longer survival", "value": "100 % of control"}, {"measurement": "T/C", "setting": "endpoint: median survival time, dose: 1250.0 mg/kg/injection, schedule: Q01DX009 (ip), vehicle: saline, higher = longer survival", "value": "56 % of control"}]}
